What was measured:
Format in all cases: cell-based
[1] = test system: Wnt signaling target genes in human iPS cells; assay: Gene expression analysis by DNA array and quantitative polymerase chain reaction; set-up: expressions of genes by DNA array (HOXA1, MSGN1, NKD1, T, TNFRSF11B, DKK1, DKK4, CDX2, MSX1, NODAL, FGF4 and others): dose or concentration left out as unconfirmed
Description: (in the order of the genes whose expression were reduced most 12 hours later) HOXA1, MSGN1, NKD1, T, TNFRSF11B, DKK1, DKK4, CDX2, MSX1, NODAL, FGF4, PAPPA, PRRX1, LRAT, CYP1B1, SLC34A2, AXIN2, LGL1, SPS, MIXL1, APCDD1 and DSEL. […] The analyzed genes were as follows: MSGN1, HOXA1; T, MIXL1; Dkk1, AXIN2; NODAL and FGF4 (all known as Wnt signaling target genes).

[2] = test system: Monkey ES cells (CMK6.4); assay: Number of beating colonies of cardiac muscle cells; conditions: Monkey ES (CMK6.4)
Description: (§1) The effect of promoting differentiation of each of the ES/iPS cells into cardiac muscle cells were confirmed for N11474 and KY02111 with the GFP expression level and number of beating colonies used as the indicators. Human ES cell line (Kh-1 line) (Suemori, H., et al., Efficient establishment of human embryonic stem cell lines and long-term maintenance with stable karyotype by enzymatic bulk passage. Biochem Biophys Res Commun. 345(3), 926-32 (2006)) (incorporated herein by reference) was seeded in a 6-well plate (Asahi Glass/5816-006: Ezview culture plate) in 1.2×10^6 cells/well and cultured for 22 days, with BMP4 (10 ng/ml) added during day 0 to 4 of culture and N11474 (10 μM) or KY02111 (5 μM) added during day 4 to 14 of culture. Human iPS cell lines (253G1, IMR90-1, IMR90-4 and RCHIPC0003) (Takahashi, K., et al., Induction of pluripotent stem cells from adult human fibroblasts by defined factors. Cell. 131(5), 861-72 (2007); Yu, J., et al., Induced pluripotent stem cell lines derived from human somatic cells. Science. 318(5858), 1917-20 (2007)) (these references are herein incorporated by reference) were cultured for the cardiac muscle cell differentiation in the same manner as for the human ES cells. The cardiac muscle cells from mouse ES cells (R1) were differentiated in accordance with the method described in the reference (Transient inhibition of BMP signaling by Noggin induces cardiomyocyte differentiation of mouse embryonic stem cells. Yuasa S, et al. Nat. Biotechnol. 2005 May; 23(5): 607-11; incorporated herein by reference). KY02111 (5 μM) was added for 3 days during day 6 to 9 of cardiac muscle cell differentiation culture and the beating colonies of cardiac muscle cells were analyzed at day 9. Monkey ES cells (CMK6.4) were cultured for cardiac muscle cell differentiation in the same manner as in the above (2).

[3] = test system: mouse ES cells (R1); assay: Number of beating colonies of cardiac muscle cells; conditions: KY02111 5 μM during day 6 to 9, analyzed at day 9
Description: as §1

[4] = test system: Human iPS (RCHIPC0003); assay: Number of beating colonies of cardiac muscle cells; conditions: KY02111 5 μM during day 4 to 14
Description: as §1

[5] = test system: Human iPS (253G1); assay: Number of beating colonies of cardiac muscle cells; conditions: KY02111 5 μM during day 4 to 14
Description: as §1

[6] = test system: Human iPS (IMR90-1); assay: Number of beating colonies of cardiac muscle cells; conditions: KY02111 5 μM during day 4 to 14
Description: The effect of promoting differentiation of each of the ES/iPS cells into cardiac muscle cells were confirmed for N11474 and KY02111 with the GFP expression level and number of beating colonies used as the indicators. Human ES cell line (Kh-1 line) (Suemori, H., et al., Efficient establishment of human embryonic stem cell lines and long-term maintenance with stable karyotype by enzymatic bulk passage. Biochem Biophys Res Commun. 345(3), 926-32 (2006)) (incorporated herein by reference) was seeded in a 6-well plate (Asahi Glass/5816-006: Ezview culture plate) in 1.2×10^6 cells/well and cultured for 22 days, with BMP4 (10 ng/ml) added during day 0 to 4 of culture and N11474 (10 μM) or KY02111 (5 μM) added during day 4 to 14 of culture. […] KY02111 (5 μM) was added for 3 days during day 6 to 9 of cardiac muscle cell differentiation culture and the beating colonies of cardiac muscle cells were analyzed at day 9. […] The effect of BIO, a Wnt signaling activator, on the effect of promoting cardiac muscle cell differentiation of KY02111, XAV939 and IWP2 was analyzed. […] The synergistic effects between KY02111 and a known Wnt signaling inhibitor XAV939 or IWP2 in the promotion of cardiac muscle cell differentiation were analyzed.

[7] = test system: Monkey ES cells; assay: Cardiac muscle cell differentiation of monkey ES cells, 6-well plate, GFP expression observed at day 14
Excerpt: In the same manner as Example 2, the effects of promoting cardiac muscle cell differentiation were compared among KY02111 and N11474, known Wnt signaling inhibitors (IWP2, XAV939 and IWR1), proteins known to be effective in promoting cardiac muscle cell differentiation (G-CSF, IGFBP4, Dkk1 and cytokines (a mixture of bFGF, BMP4, VEGF, DKK1 and Activin A)).
The effect of BIO, a Wnt signaling activator, on the effect of promoting cardiac muscle cell differentiation of KY02111, XAV939 and IWP2 was analyzed. […]

[8] = KY02111 5 μM during day 4 to 8, singly

COc1ccc(CCC(=O)Nc2nc3ccc(Cl)cc3s2)cc1OC [KY02111, 2-(3-(3,4-dimethoxyphenyl)propanamide)-6-chlorobenzothiazole]
expressions of genes by DNA array (HOXA1, MSGN1, NKD1, T, TNFRSF11B, DKK1, DKK4, CDX2, MSX1, NODAL, FGF4 and others) ([1]; 12 hours and 24 hours after the addition): reduced
expressions of MSGN1, HOXA1, T, MIXL1, Dkk1, AXIN2, NODAL and FGF4 (Wnt signaling target genes) by qPCR ([1]; FIG. 9): reduced
expression of MSGN1, HOXA1, T, Dkk1 and FGF4 by qPCR ([1]; confirmation of DNA array, FIG. 8): same results as the DNA array analysis
Beating cardiac muscle cell differentiation efficiency (Control (DMSO) = 100%) [2]: 1850% (KY02111)
Beating cardiac muscle cell differentiation efficiency (Control (DMSO) = 100%) [3]: 200% (KY02111)
Beating cardiac muscle cell differentiation efficiency (Control (DMSO) = 100%) [4]: 100% (KY02111)
Beating cardiac muscle cell differentiation efficiency (Control (DMSO) = 100%) [5]: 1500% (KY02111)
Beating cardiac muscle cell differentiation efficiency (Control (DMSO) = 100%) [6]: 6100% (KY02111)
increase in the GFP expression level ([7]; 10 μM during day 4 to 10, GFP at day 14): 7400%
effect of promoting cardiac muscle cell differentiation (GFP expression), comparison with Wnt signaling inhibitors and proteins ([7]; 10 μM during day 4 to 10, GFP at day 14, FIG. 10): strongest effect of promoting cardiac muscle cell differentiation
effect of BIO on the compound's effect of cardiac muscle cell differentiation (GFP expression) ([7]; BIO 5 μM added together with the compound during day 4 to 10, GFP at day 14): did not inhibit
increase in the GFP expression level versus Control (DMSO) [7, 8]: about 30 times
proportion of beating colonies [7, 8]: about 30%
ratio of number of GFP colonies [7, 8]: ~73%
